Measured values as given in ChEMBL document CHEMBL6153147 (J Med Chem, 2025).
pIC50: −log10 of the molar value.

Columns and labels:
[1] = molecular target: Serine/threonine-protein kinase PLK1 (Homo sapiens, UniProt P53350); assay: Inhibition of human PLK1 at 10 uM by kinome selectivity profiling analysis relative to control
[2] = molecular target: cGMP-dependent protein kinase 2 (Homo sapiens) (UniProt Q13237); assay: Inhibition of human PRKG2 assessed as residual activity at 10 uM by kinome selectivity profiling analysis relative to control
Homo sapiens = organism: Homo sapiens; assay: Inhibition of human ABL assessed as residual activity at 10 uM by kinome selectivity profiling analysis relative to control
[3] = molecular target: Epidermal growth factor receptor (Homo sapiens) (UniProt P00533); assay: Inhibition of human EGFR assessed as residual activity at 10 uM by kinome selectivity profiling analysis relative to control
[4] = Stability of compound in rat hepatocytes; format: ADME, cell-based, Hepatocyte
Cytochrome P450 2C8 = Cytochrome P450 2C8 (Homo sapiens, UniProt P10632); assay: Inhibition of CYP2C8 in human liver microsomes using paclitaxel as substrate preincubated with compound followed by substrate addition measured after 10 mins in presence of NADPH by LC-MS/MS analysis; format: ADME, Microsome
[5] = Cmax in C57BL/6 mouse at 1 mg/kg, iv measured for 0.5 to […] htr by LC-MS/MS analysis; format: ADME, organism-based; conditions: in vivo, time 0.5-12 hrs
[6] = MRT (0 to t) in C57BL/6 mouse at 1 mg/kg, iv measured for 0.5 to 12 htr by LC-MS/MS analysis; format: ADME, organism-based; conditions: in vivo, time 0.5-12 hrs
[7] = Metabolic stability in human liver microsomes assessed as half life preincubated for 5 mins followed by NADPH addition by LC-MS/MS analysis; format: ADME, Microsome
[8] = Metabolic stability in mouse liver microsomes assessed as intrinsic clearance in microsome measured per mg protein preincubated for 5 mins followed by NADPH addition by LC-MS/MS analysis; format: ADME; conditions: read-out: CLH
[9] = Cytotoxicity against HEK293T cells assessed as cell viability at 30 uM by CCK8 assay relative to control; format: toxicity, cell-based, HEK-293T; conditions: human, read-out: Activity
[10] = Acute toxicity in mouse assessed as damage in kidney at 500 mg/kg, IG qd treated for 7 days by H and E staining based analysis; format: organism-based; conditions: in vivo, po, 168 h, time 7 day
NCI-H460 = assay: cells; conditions: Homo sapiens
A549 = assay: cells; conditions: Homo sapiens

Chain of Serine/threonine-protein kinase PLK1 (P53350 whole entry): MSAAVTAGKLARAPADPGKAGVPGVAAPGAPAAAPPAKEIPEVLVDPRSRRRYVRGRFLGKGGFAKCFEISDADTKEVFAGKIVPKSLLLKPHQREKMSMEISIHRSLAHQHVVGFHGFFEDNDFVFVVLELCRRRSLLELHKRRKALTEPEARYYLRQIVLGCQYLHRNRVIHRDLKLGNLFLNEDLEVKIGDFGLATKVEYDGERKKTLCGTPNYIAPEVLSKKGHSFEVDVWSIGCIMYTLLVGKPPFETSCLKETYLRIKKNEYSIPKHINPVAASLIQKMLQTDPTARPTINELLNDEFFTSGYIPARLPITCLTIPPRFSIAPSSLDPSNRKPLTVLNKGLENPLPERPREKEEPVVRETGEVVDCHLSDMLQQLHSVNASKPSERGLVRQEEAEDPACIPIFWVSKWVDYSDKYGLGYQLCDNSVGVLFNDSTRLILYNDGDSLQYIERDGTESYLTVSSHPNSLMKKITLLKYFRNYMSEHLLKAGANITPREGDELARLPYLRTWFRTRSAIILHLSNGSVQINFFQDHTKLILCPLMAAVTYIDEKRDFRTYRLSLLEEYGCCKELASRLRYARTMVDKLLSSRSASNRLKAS
Chain of Epidermal growth factor receptor (Homo sapiens) (P00533 whole entry): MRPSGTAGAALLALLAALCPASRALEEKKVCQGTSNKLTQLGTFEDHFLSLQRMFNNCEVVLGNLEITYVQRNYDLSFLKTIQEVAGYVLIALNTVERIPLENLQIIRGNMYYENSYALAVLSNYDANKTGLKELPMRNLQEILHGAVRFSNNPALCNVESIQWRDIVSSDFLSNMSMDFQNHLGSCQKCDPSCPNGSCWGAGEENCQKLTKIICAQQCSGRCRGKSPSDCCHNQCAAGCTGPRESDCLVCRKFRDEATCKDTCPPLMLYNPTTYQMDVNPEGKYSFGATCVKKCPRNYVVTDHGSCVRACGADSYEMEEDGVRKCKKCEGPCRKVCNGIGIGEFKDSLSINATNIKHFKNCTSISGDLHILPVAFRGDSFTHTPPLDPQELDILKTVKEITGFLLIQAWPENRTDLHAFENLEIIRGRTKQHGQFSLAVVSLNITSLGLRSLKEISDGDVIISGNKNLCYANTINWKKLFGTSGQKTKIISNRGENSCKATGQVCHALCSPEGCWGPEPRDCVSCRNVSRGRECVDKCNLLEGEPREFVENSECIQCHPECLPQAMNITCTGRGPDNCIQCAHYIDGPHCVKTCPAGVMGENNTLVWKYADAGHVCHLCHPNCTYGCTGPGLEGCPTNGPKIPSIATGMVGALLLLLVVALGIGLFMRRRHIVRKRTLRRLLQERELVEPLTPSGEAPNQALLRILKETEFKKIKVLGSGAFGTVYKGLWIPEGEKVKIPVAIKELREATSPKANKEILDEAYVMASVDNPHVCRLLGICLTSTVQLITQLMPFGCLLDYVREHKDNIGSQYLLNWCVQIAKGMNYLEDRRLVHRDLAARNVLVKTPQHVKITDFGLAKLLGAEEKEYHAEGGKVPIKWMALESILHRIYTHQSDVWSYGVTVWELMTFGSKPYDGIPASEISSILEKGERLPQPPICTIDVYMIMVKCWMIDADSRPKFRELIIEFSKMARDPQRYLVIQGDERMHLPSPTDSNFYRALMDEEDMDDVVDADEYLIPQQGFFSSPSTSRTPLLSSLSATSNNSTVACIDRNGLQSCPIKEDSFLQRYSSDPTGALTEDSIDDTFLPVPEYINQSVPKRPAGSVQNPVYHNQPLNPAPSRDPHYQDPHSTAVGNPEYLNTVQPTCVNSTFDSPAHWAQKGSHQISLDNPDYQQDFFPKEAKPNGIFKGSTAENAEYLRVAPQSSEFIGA
Chain of cGMP-dependent protein kinase 2 (Homo sapiens) (Q13237 whole entry): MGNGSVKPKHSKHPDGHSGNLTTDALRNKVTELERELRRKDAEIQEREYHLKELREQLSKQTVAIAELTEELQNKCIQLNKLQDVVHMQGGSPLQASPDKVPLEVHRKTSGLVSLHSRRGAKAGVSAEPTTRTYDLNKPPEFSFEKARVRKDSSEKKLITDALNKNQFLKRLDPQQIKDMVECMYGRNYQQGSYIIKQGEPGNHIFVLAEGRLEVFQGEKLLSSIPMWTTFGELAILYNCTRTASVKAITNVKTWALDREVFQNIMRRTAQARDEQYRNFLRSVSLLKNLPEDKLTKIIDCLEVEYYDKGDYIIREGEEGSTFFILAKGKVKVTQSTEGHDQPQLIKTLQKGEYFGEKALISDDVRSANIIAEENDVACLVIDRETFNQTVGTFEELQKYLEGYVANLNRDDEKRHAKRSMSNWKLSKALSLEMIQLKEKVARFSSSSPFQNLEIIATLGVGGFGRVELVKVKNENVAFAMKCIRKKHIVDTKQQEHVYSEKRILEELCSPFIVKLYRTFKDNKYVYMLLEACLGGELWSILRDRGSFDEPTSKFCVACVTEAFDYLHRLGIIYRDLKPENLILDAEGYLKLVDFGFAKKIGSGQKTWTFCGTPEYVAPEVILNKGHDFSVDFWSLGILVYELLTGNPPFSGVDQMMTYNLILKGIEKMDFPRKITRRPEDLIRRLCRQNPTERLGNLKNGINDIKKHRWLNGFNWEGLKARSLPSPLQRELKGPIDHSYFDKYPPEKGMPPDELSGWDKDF
Chain of Cytochrome P450 2C8 (P10632 whole entry): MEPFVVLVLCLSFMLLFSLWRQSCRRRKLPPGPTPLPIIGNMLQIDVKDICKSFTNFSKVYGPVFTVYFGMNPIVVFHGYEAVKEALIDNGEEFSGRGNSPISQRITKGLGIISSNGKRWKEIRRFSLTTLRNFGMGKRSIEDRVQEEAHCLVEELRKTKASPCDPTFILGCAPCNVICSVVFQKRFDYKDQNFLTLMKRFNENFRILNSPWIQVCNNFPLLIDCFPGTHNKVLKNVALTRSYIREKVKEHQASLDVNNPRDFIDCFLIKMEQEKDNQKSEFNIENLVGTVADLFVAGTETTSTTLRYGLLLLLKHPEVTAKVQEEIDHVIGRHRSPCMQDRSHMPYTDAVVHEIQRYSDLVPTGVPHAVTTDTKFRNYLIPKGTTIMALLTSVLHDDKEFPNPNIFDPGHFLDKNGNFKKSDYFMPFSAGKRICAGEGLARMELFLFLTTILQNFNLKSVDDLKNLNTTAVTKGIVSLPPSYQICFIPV

In the case of `CC[C@@H]1C(=O)N(C)c2cnc(Nc3cc(N4CCN(C)CC4)cc(Cl)c3OCCCO)nc2N1C1CCCC1`, the inhibition [1] was 100%, the Activity [2] was 110% and the Activity (Homo sapiens) was 108%. For the same molecule, the Activity [3] was 107%, the Stability [4] was “Stable” and the pIC50 (Cytochrome P450 2C8) was less than 5.00. The Cmax [5] was 264 ng/mL, the MRT last [6] was 39.6 min and the half-life [7] was 30.3 min. For the same molecule, the microsomal CLint [8] was 210 µL/min/mg, the viability at 30 µM [9] was 68% and the Activity [10] was “Non-toxic”. The pIC50 (NCI-H460) was 7.92 and the pIC50 (A549) was 7.49.
